Measurements from patent US5698567A, “Heterocyclic spiro compounds” (Adir Et Compagnie, priority 1995, dated 1997).
Counter-ions that a name gives are not always drawn.

Key:
5-lipoxygenase [1] = assay: Inhibition of the synthesis of LTB4 in total blood of rats ex vivo (5-lipoxygenase-inhibiting activity); design: species or system rat; conditions: 60 μmol/kg p.o., 1 h; A23187 5 × 10^-5 M, n = 8
Description: 1.2 Determination of 5-lipoxygenase-inhibiting activity ex vivo (see Brideau C., Chan C., Charleson S., Denis D. et al. Pharmacology of MK-0591 (3-[1-(4-chlorobenzyl)-3-(t-butyl-thio)-5(quinolin-2-yl-methoxy)-indol-2-yl]-2,2-dimethyl propanoic acid), a Potent, Orally Active Leukotriene Biosynthesis Inhibitor. Can. J. Physiol. Pharmacol. Vol. 70, p. 799-807, 1992).
Inhibition of the biosynthesis of leukotrienes ex vivo following oral administration of the compounds was determined by studying the production of leukotrienes on total blood of rats stimulated in vitro by the calcium ionophore at time 1 hour after oral administration of the compounds.
The various products are administered in suspension in hydroxyethylcellulose: 0.5% H.E.C. at a dose of 60 μmol/kg. Each product is studied on a group of 8 different animals. A control group receives 0.5% H.E.C. only. After intracardial removal of the blood from each rat (male Sprague Dawley rats weighing 150-200 g IFFA CREDO), 1 ml of heparinised blood is incubated with the calcium ionophore A23 187 at a concentration of 5×10^-5 M for 10 minutes at 37° C. The blood is then centrifuged immediately and 100 μl of plasma are extracted in 400 μl of methanol. After centrifugation, the supernatant is evaporated to dryness under N2, the dry residue is taken up in buffer solution, and the LTB4 is assayed by the E.I.A. method (Stallergenes France).
The percentage inhibition is expressed as follows: [formula] 2/Results
Average relative to all controls n = 31
Products administered p.o. 1 hour before removal of blood n = 8
Total blood of rats stimulated for 10 minutes in vitro by the calcium

5-lipoxygenase [2] = assay: Inhibition of the synthesis of LTB4 by the peritoneal PMN of rats in vitro (5-lipoxygenase-inhibiting activity); type: cell-based, rat; conditions: rat peritoneal PMN, A23187 10^-6 M
From the text: 1.1 Determination of 5-1ipoxygenase-inhibiting activity in vitro (see Goldyne M. E., Burrish G. F., Poubelle P. and Borgeat P., Arachidonic Acid Metabolism among human mononuclear leukocytes. The Journal of Biological Chemistry. Vol. 259, N° 4, p. 8815-8819, 1984, and New Chang C. and Gin Wensu. Stimulation of 5-Lipoxygenase Activity in Polymorphonuclear Leukocytes of Rats by Caseinate Treatment. Biochemical Pharmacology. Vol. 36, N° 8, p. 3033-3036, 1987).
(§1) 5-Lipoxygenase-inhibiting activity was determined on peritoneal leukocytes of rats. Leukocytosis is induced in male OFA rats (IFFA CREDO) weighing 200-250 g by the intraperitoneal injection of 12% sodium caseinate. 18 hours later, the cells are collected by washing the abdominal cavity. The number of cells is adjusted to 2×10^6 /ml.
(§2) The cell suspension is incubated for 10 minutes at 37° C. in the presence of Ca^2+ 5×10^-4 M and Mg^2+ 2×10^-3 M and of various concentrations of the test products. The cells are then stimulated with the calcium ionophore A23187 at a concentration of 10^-6 M for 5 minutes at 37° C. Controls are carded out by incubating the cells with the solvent for the products: 2% DMSO.
After stopping the reaction at +4° C. and centrifugation, the quantity of LTB4 in ng/2×10^6 cells in the supernatants is determined by the E.I.A. method (Statlergenes France). The percentage inhibition is calculated as follows: [formula]
(§3) Metabolism of arachidonic acid by the peritoneal PMN of rats stimulated
(§4) for 5 minutes in vitro by the calcium ionophore (A23187): 10^-6 M.
(§5) Incubation of the products with the cells for 10 minutes prior to
(§6) stimulation with the ionophore.

[3] = system: synthesis of PGE2 by the peritoneal PMN of rats; assay: Inhibition of the synthesis of PGE2 by the peritoneal PMN of rats in vitro; type: cell-based, rat; conditions: A23187; for inhibition at 100 µM: 10^-4 M; for inhibition at 100 µM / inhibition at 10 µM: rat peritoneal PMN; for inhibition at 10 µM: 10^-5 M; for IC50: rat peritoneal PMN in vitro
Description: as §1, §2, §3, §4, §5, §6

SMILES | % Inhibition of the synthesis of LTB4 in total blood of rats ex vivo (5-lipoxygenase [1]) | LTB4 % Inhibition (5-lipoxygenase [2]; 4.10^-8 M) | LTB4 % Inhibition (5-lipoxygenase [2]; 10^-6 M) | LTB4 % Inhibition (5-lipoxygenase [2]; 10^-7 M) | LTB4 % Inhibition (5-lipoxygenase [2]; 10^-8 M) | inhibition at 100 µM [3] | inhibition at 10 µM [3] | IC50 [3]
O=C1NCC2(CCN(CC(Cc3ccc(Cl)cc3)c3ccc(OCc4ccc5ccccc5n4)cc3)CC2)O1 (racemic) [Example 34, (R,S)-8-{3-(4-chlorophenyl)-2-[4-(quinol-2-ylmethoxy)phenyl]propyl}-3,8-diaza-1-oxa-2-oxospiro[4,5]decane hydrochloride] | 58% | 56% | 100% | 72% | 12% | 6% | 2% | > 100 µM
O=C1NCC2(CCN(C(c3ccccc3)c3ccc(OCc4ccc5ccccc5n4)cc3)CC2)O1 (racemic) [Example 24, (R,S)-8-{phenyl-[4-(quinol-2-ylmethoxy)phenyl]methyl}-3,8-diaza-1-oxa-2-oxospiro[4,5]decane] | 41% | 56% | – | 100% | – | 44% | 19% | > 100 µM
O=C1NCC2(CCN(C(c3ccc(Cl)cc3)c3ccc(OCc4ccc5ccccc5n4)cc3)CC2)O1 (racemic) [Example 22, (R,S)-8-{(4-chlorophenyl)-[4-(quinol-2-ylmethoxy)phenyl]methyl}-3,8-diaza-1-oxa-2-oxospiro[4,5]decane dihydrochloride] | 17% | 76% | 100% | 97% | 18% | 4% | 6% | > 100 µM
O=C1NCC2(CCN(CC(c3ccccc3)c3ccc(OCc4ccc5ccccc5n4)cc3)CC2)O1 (racemic) [Example 6, (R,S)-8-{2-phenyl-2-[4-(quinol-2-ylmethoxy)phenyl]ethyl}-3,8-diaza-1-oxa-2-oxospiro[4,5]decane] | 64% | 60% | 100% | 93% | 21% | 88% | 3% | –
O=C1NCC2(CCN(CC(CCc3ccccc3)c3ccc(OCc4ccc5ccccc5n4)cc3)CC2)O1 (racemic) [Example 33, (R,S)-8-{4-phenyl-2-[4-(quinol-2-ylmethoxy)phenyl]butyl}-3,8-diaza-1-oxa-2-oxospiro[4,5]decane] | 48% | 54% | – | 86% | 6% | 94% | 7% | –
O=C1NCC2(CCN(CC(Cc3ccccc3)c3ccc(OCc4ccc5ccccc5n4)cc3)CC2)O1 (racemic) [Example 32, (R,S)-8-{3-phenyl-2-[4-(quinol-2-ylmethoxy)phenyl]propyl}-3,8-diaza-1-oxa-2-oxospiro[4,5]decane] | 55% | 24% | 100% | 78% | – | 92% | – | –
